Results as given in ChEMBL document CHEMBL4842332, “Eriocitrin Contained in Lemon Peel Ameliorates Disuse Muscle Atrophy by Suppressing the Expression of Atrogin-1 and MuRF-1 in Denervated Mice” (2021).
The source made the active and inactive calls.

Assays:
Mus musculus [1] = species on record: Mus musculus; experiment: Toxicity in denervated C57BL/6NCrSlc mouse assessed as effect on body weight (reference value: 25.74 g); format: functional
Mus musculus [2] = species on record: Mus musculus; experiment: Upregulation of SOD1 mRNA expression in denervated C57BL/6NCrSlc mouse by RT-PCR analysis; format: functional
Mus musculus [3] = species on record: Mus musculus; experiment: Downregulation of MuRF-1 mRNA expression in denervated C57BL/6NCrSlc mouse by RT-PCR analysis; format: functional
Mus musculus [4] = species on record: Mus musculus; experiment: Antioxidant activity in denervated C57BL/6NCrSlc mouse assessed as […] in lipid peroxide level in gastrocnemius muscle measured after 30 mins; format: functional, organism-based
Mus musculus [5] = species on record: Mus musculus; experiment: Upregulation of Atrogin-1 mRNA expression in denervated C57BL/6NCrSlc mouse by RT-PCR analysis; format: functional
Mus musculus [6] = species on record: Mus musculus; experiment: Downregulation of FOXO1 mRNA expression in denervated C57BL/6NCrSlc mouse by RT-PCR analysis; format: functional
Mus musculus [7] = species on record: Mus musculus; experiment: Antioxidant activity in denervated C57BL/6NCrSlc mouse assessed as […] in GSSG/GSH ratio in gastrocnemius muscle measured after 30 mins; format: functional, organism-based
Mus musculus [8] = species on record: Mus musculus; experiment: Effect on PGC1a mRNA expression in denervated C57BL/6NCrSlc mouse by RT-PCR analysis; format: functional
Mus musculus [9] = species on record: Mus musculus; experiment: Effect of PPARgamma mRNA expression in denervated C57BL/6NCrSlc mouse by RT-PCR analysis; format: functional, organism-based
Mus musculus [10] = species on record: Mus musculus; experiment: Suppression of denervation-induced gastrocnemius muscle weight loss in C57BL/6NCrSlc mouse; format: functional, organism-based
Mus musculus [11] = species on record: Mus musculus; experiment: Effect of PPARdelta mRNA expression in denervated C57BL/6NCrSlc mouse by RT-PCR analysis; format: functional, organism-based
Mus musculus [12] = species on record: Mus musculus; experiment: Upregulation of IGF-1 mRNA expression in denervated C57BL/6NCrSlc mouse by RT-PCR analysis; format: functional

Measured: Activity

C[C@@H]1O[C@@H](OC[C@H]2O[C@@H](Oc3cc(O)c4c(c3)O[C@H](c3ccc(O)c(O)c3)CC4=O)[C@H](O)[C@@H](O)[C@@H]2O)[C@H](O)[C@H](O)[C@H]1O [ERIOCITRIN]
inactive: Mus musculus [5] | Mus musculus [8] | Mus musculus [9] | Mus musculus [11]
active: Mus musculus [2] | Mus musculus [3] | Mus musculus [4] | Mus musculus [6] | Mus musculus [7] | Mus musculus [10] | Mus musculus [12]
25.37 g: Mus musculus [1]
